Target: T1, delF508-CFTR (Homo sapiens, UniProt P13569, DEL508-508)
T1 construct: expressed in transfected cells
Assay: Measurement of delF508-CFTR-HRP surface expression in CFBE41o- cells
Format: cell-based
Conditions: for EC50: HRP-tagged delF508-CFTR in CFBE41o- cells, 24 h with compound, luminescence, 10-point curve, top 10 μM; for Emax: efficacy relative to reference compound 3-(6-(1-(2,2-difluorobenzo[d][1,3]dioxol-5-yl)cyclopropane-1-carboxamido)-3-methylpyridin-2-yl)benzoic acid, CFBE41o- cells, 24 h, read-out: DelF508-CFTR-HRP Amax %
From the text: Measurement of delF508-CFTR-HRP Surface Expression in CFBE41o-Cells
This assay quantifies the cell surface expressions of the mutant CFTR channel using an extracellular HRP tag.
A cellular assay was developed to measure surface expression of horseradish peroxidase (HRP) tagged delF508-CFTR in the human bronchial epithelial immortalized CFBE41o-cell line (Phuan, P. W., et al, (2014) Molecular Pharmacology 86:42-51). Specifically, the HRP sequence was inserted into the fourth extracellular loop of delF508-CFTR and stably expressed in CFBE41o-cells. Cells were seeded in 384 well plate at a density of 5000 cells/well and incubated at 37° C. for 12 to 24 hours in medium (Gibco MEM #11095, 10% FBS, 10 mM HEPES, […], 200 μg/mL G418, 3 μg/mL Puromycin). The delF508-CFTR-HRP expression was induced with 500 ng/mL doxycycline (Sigma D-9891, dissolved in H2O and sterile filtered) in medium and the cells were incubated at 37° C. for 48 h. Old medium was removed and fresh medium was added containing 500 ng/mL doxycycline and unknown test compound at required test concentration in DMSO, not exceeding 0.5% final DMSO concentration. The highest concentration tested was 10 μM with a 10-point concentration response curve using a 3-fold dilution. After addition of compounds, the cells were incubated for 24 h at 37° C. On the final day, cells were washed four times in PBS containing 1 mM MgCl2 and 0.1 mM CaCl2. HRP-Substrate (SuperSignal ELISA Pico, Fisher #37069) 20 μl/well was added and the luminescence signal was determined (Viewlux, Perkin Elmer). Light was emitted upon addition of exogenous HRP-Substrate only when delF508-CFTR-HRP reached the cell surface and the HRP tag was accessible to the HRP-Substrate (note: HRP-Substrate cannot cross the lipid bilayer to reach delF508-CFTR-HRP misfolded within the cell).
The median activity for the lowest concentration of the compounds on each assay plate was calculated and this value was used to normalize the signal for each well on the respective plate. Three replicates at each concentrations for every compound were run to determine one EC50. The median value was determined and used to calculate compound activities as described below. Effective half maximal values (EC50) were calculated for each compound by performing logistic regression on measured dose-response data points using the equation: […]
where “Y” is the observed activity, “Bottom” is the lowest observed value, “Top” is the highest observed value, and the “Hill coefficient” gives the largest absolute value of the slope. The curve fitting is carried out by a curve fitting program implemented at GNF using Matlab (Mathworks).
The dose response curves also were used to calculate Fold Change (FC) using the equation: […]
Compound efficacy relative to the reference compound 3-(6-(1-(2,2-difluorobenzo[d][1,3]dioxol-5-yl)cyclopropane-1-carboxamido)-3-methylpyridin-2-yl)benzoic acid was determined using the following formula: […]

T1 sequence (P13569 with tags, fused parts or gaps DEL508-508): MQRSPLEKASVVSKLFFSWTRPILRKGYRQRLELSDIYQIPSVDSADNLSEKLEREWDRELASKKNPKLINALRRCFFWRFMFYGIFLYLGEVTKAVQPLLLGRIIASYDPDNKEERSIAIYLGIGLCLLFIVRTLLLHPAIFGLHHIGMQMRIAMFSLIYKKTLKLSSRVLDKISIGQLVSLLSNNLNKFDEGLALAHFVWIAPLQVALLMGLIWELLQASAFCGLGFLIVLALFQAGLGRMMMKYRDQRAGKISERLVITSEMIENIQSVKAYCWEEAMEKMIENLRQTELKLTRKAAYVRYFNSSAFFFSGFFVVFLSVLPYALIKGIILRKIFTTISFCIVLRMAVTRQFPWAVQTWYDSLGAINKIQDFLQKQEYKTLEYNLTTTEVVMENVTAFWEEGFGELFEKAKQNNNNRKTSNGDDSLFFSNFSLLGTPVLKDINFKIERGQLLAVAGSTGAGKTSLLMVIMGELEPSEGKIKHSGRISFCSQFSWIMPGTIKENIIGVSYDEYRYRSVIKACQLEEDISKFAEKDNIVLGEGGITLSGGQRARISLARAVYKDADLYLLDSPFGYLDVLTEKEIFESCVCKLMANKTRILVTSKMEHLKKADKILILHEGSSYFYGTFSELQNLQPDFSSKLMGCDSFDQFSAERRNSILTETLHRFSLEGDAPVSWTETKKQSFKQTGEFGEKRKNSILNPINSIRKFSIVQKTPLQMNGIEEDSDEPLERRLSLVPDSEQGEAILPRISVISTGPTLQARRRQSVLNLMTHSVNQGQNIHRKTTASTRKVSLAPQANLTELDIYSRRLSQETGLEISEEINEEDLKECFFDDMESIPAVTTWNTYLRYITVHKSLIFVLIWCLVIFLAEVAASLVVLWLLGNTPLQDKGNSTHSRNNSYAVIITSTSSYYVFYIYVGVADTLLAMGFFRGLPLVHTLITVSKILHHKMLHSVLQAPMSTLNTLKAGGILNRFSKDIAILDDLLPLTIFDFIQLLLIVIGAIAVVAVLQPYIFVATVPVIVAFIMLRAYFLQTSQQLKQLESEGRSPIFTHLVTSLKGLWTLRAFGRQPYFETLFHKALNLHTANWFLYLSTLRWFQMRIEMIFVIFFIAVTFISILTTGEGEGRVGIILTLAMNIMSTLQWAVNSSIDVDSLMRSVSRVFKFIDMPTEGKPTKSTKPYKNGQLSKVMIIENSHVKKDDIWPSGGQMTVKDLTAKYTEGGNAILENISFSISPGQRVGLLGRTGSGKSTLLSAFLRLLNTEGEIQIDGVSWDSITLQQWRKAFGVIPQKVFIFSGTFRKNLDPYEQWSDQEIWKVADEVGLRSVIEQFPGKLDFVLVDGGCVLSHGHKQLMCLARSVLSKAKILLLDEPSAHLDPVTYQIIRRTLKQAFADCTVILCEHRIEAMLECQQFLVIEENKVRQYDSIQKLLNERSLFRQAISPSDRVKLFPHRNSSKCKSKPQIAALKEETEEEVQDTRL

| Structure (SMILES) | EC50 [nM] | Emax [%] |
| --- | --- | --- |
| Cc1ccccc1-c1nc(NS(=O)(=O)c2cccc(N(CCC(=O)O)C(C)C)n2)ccc1C(F)(F)F [Compound 91, 3-(isopropyl(6-(N-(6-(o-tolyl)-5-(trifluoromethyl)pyridin-2-yl)sulfamoyl)pyridin-2-yl)amino)propanoic Acid] | 1670 |  |
| Cc1ccc(F)cc1-c1nc(NS(=O)(=O)c2cccc(N3CCC(C)(CC(=O)O)CC3)n2)ccc1C(F)(F)F [Compound 6, 2-(1-(6-(N-(6-(5-fluoro-2-methylphenyl)-5-(trifluoromethyl)pyridin-2-yl)sulfamoyl)pyridin-2-yl)-4-methylpiperidin-4-yl)acetic Acid] | 1520 | 529 |
| C=Cc1ccccc1-c1nc(NS(=O)(=O)c2cccc(N3CCCC(CCC(=O)O)C3)n2)ccc1C(F)(F)F (centres unmarked) [Compound 74, 3-(1-(6-(N-(5-(trifluoromethyl)-6-(2-vinylphenyl)pyridin-2-yl)sulfamoyl)pyridin-2-yl)piperidin-3-yl)propanoic Acid] | 1090 |  |
| Cc1ccccc1-c1nc(NS(=O)(=O)c2cccc(N3CCCC(CCC(=O)O)C3)n2)ccc1C(F)(F)F (centres unmarked) [Compound 73, 3-(1-(6-(N-(6-(o-tolyl)-5-(trifluoromethyl)pyridin-2-yl)sulfamoyl)pyridin-2-yl)piperidin-3-yl)propanoic acid] | 1390 |  |
| Cc1ccccc1-c1nc(NS(=O)(=O)c2cccc(N(C)CCC(=O)O)n2)ccc1C(F)(F)F [Compound 34, 3-(methyl(6-(N-(6-(o-tolyl)-5-(trifluoromethyl)pyridin-2-yl)sulfamoyl)pyridin-2-yl)amino)propanoic Acid] | 2580 | 785 |
| O=C(O)CC1CCN(c2cccc(S(=O)(=O)Nc3ccc(C(F)(F)F)c(-c4ccccc4C4CCC4)n3)n2)CC1 [Compound 17, 2-(1-(6-(N-(6-(2-cyclobutylphenyl)-5-(trifluoromethyl)pyridin-2-yl)sulfamoyl)pyridin-2-yl)piperidin-4-yl)acetic Acid] | 1460 | 369 |
| Cc1ccccc1-c1nc(NS(=O)(=O)c2cccc(N3CCC(CC(=O)O)C3)n2)ccc1C(F)(F)F (centres unmarked) [Compound 32, 2-(1-(6-(N-(6-(o-tolyl)-5-(trifluoromethyl)pyridin-2-yl)sulfamoyl)pyridin-2-yl)pyrrolidin-3-yl)acetic Acid] | 1800 | 372 |
| Cc1ccccc1-c1nc(NS(=O)(=O)c2cccc(N(C)CCCC(=O)O)n2)ccc1C(F)(F)F [Compound 37, 4-(methyl(6-(N-(6-(o-tolyl)-5-(trifluoromethyl)pyridin-2-yl)sulfamoyl)pyridin-2-yl)amino)butanoic Acid] | 2050 | 982 |
| Cc1ccccc1-c1nc(NS(=O)(=O)c2cccc(NCCCCC(=O)O)n2)ccc1C(F)(F)F [Compound 43, 5-((6-(N-(6-(o-tolyl)-5-(trifluoromethyl)pyridin-2-yl)sulfamoyl)pyridin-2-yl)amino)pentanoic Acid] | 2370 | 407 |
| Cc1ccccc1-c1nc(NS(=O)(=O)c2cccc(N3CCC(C(C)(C)C(=O)O)CC3)n2)ccc1C(F)(F)F [Compound 10, 2-methyl-2-(1-(6-(N-(6-(o-tolyl)-5-(trifluoromethyl)pyridin-2-yl)sulfamoyl)pyridin-2-yl)piperidin-4-yl)propanoic Acid] | 910 | 266 |
| Cc1ccccc1-c1nc(NS(=O)(=O)c2cccc(N(C)CC3(C(=O)O)CCCC3)n2)ccc1C(F)(F)F [Compound 130, 1-((methyl(6-(N-(6-(o-tolyl)-5-(trifluoromethyl)pyridin-2-yl)sulfamoyl)pyridin-2-yl)amino)methyl)cyclopentane-1-carboxylic Acid] | 2060 | 403 |
| Cc1ccccc1-c1nc(NS(=O)(=O)c2cccc(N3CCCCC3CCC(=O)O)n2)ccc1C(F)(F)F (centres unmarked) [Compound 98, 3-(1-(6-(N-(6-(o-tolyl)-5-(trifluoromethyl)pyridin-2-yl)sulfamoyl)pyridin-2-yl)piperidin-2-yl)propanoic Acid] | 1540 |  |
